Assay results: PubChem BioAssay (NCI)
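Dose response: 5 concentrations. Exposure: 48 h. Format: 96-well plates. Endpoint: linear interpolation; highest concentration if not reached. GI50 marks 50% less growth. At the TGI there is no net growth.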

Experiments:
Test in all cases: inhibition of tumour cell growth, NCI panel, 48 h
PC-3 prostate = tested on: PC-3 prostate
SF-539 CNS = tested on: SF-539 CNS
TK-10 renal = tested on: TK-10 renal
MDA-MB-468 breast = tested on: MDA-MB-468 breast
COLO 205 colon = tested on: COLO 205 colon
KM12 colon = tested on: KM12 colon
M14 melanoma = tested on: M14 melanoma
HOP-62 NSCLC = tested on: HOP-62 NSCLC
HOP-92 NSCLC = tested on: HOP-92 NSCLC
NCI/ADR-RES ovarian = tested on: NCI/ADR-RES ovarian
MCF7 breast = tested on: MCF7 breast
K-562 leukemia = tested on: K-562 leukemia
OVCAR-4 ovarian = tested on: OVCAR-4 ovarian
HCC-2998 colon = tested on: HCC-2998 colon
UACC-257 melanoma = tested on: UACC-257 melanoma
SW-620 colon = tested on: SW-620 colon
HCT-15 colon = tested on: HCT-15 colon
UACC-62 melanoma = tested on: UACC-62 melanoma
HL-60(TB) leukemia = tested on: HL-60(TB) leukemia
A549 NSCLC = tested on: A549 NSCLC
ACHN renal = tested on: ACHN renal
SR leukemia = tested on: SR leukemia
LOX IMVI melanoma = tested on: LOX IMVI melanoma
SF-268 CNS = tested on: SF-268 CNS
U251 CNS = tested on: U251 CNS
SNB-75 CNS = tested on: SNB-75 CNS
MDA-MB-231 breast = tested on: MDA-MB-231 breast
NCI-H460 lung = tested on: NCI-H460 lung
786-0 renal = tested on: 786-0 renal
BT-549 breast = tested on: BT-549 breast

`C=CC(=O)Nc1ccc(C(=O)/C=C/c2ccc(N(C)C)cc2)c(O)c1` gave a TGI (PC-3 prostate) of 60.6 µM, a GI50 (SF-539 CNS) of 1.71 µM and a TGI (SF-539 CNS) of 3.78 µM. It also gave a GI50 (TK-10 renal) of 3.16 µM, a TGI (TK-10 renal) of 11.8 µM and a GI50 (MDA-MB-468 breast) of 1.61 µM. The TGI (MDA-MB-468 breast) was 6.17 µM, the GI50 (COLO 205 colon) was 3.49 µM and the TGI (COLO 205 colon) was 11.9 µM. It also gave a GI50 (KM12 colon) of 3.19 µM, a TGI (KM12 colon) of 12.5 µM and a GI50 (M14 melanoma) of 1.97 µM. For the same compound, the TGI (M14 melanoma) was 6.62 µM, the GI50 (HOP-62 NSCLC) was 3.15 µM and the TGI (HOP-62 NSCLC) was 13.3 µM. For the same compound, the GI50 (HOP-92 NSCLC) was 1.78 µM, the TGI (HOP-92 NSCLC) was 17 µM and the GI50 (NCI/ADR-RES ovarian) was 2.2 µM. The TGI (NCI/ADR-RES ovarian) was 6.83 µM, the GI50 (MCF7 breast) was 1.88 µM and the TGI (MCF7 breast) was 17 µM. For the same compound, the GI50 (K-562 leukemia) was 3.07 µM, the TGI (K-562 leukemia) was greater than 100 µM and the GI50 (OVCAR-4 ovarian) was 4.08 µM. For the same compound, the TGI (OVCAR-4 ovarian) was 43.6 µM, the GI50 (HCC-2998 colon) was 2.41 µM and the TGI (HCC-2998 colon) was 8.77 µM. The GI50 (UACC-257 melanoma) was 3.5 µM, the TGI (UACC-257 melanoma) was 18.6 µM and the GI50 (SW-620 colon) was 1.67 µM. For the same compound, the TGI (SW-620 colon) was 3.89 µM, the GI50 (HCT-15 colon) was 1.58 µM and the TGI (HCT-15 colon) was 3.75 µM. The GI50 (UACC-62 melanoma) was 1.76 µM, the TGI (UACC-62 melanoma) was 6.54 µM and the GI50 (HL-60(TB) leukemia) was 2.54 µM. For the same compound, the TGI (HL-60(TB) leukemia) was 8.45 µM, the GI50 (A549 NSCLC) was 2.57 µM and the TGI (A549 NSCLC) was 16.1 µM. For the same compound, the GI50 (ACHN renal) was 1.74 µM, the TGI (ACHN renal) was 3.79 µM and the GI50 (SR leukemia) was 1.1 µM. It also gave a TGI (SR leukemia) greater than 100 µM, a GI50 (LOX IMVI melanoma) of 1.46 µM and a TGI (LOX IMVI melanoma) of 3.28 µM. It also gave a GI50 (SF-268 CNS) of 4 µM, a TGI (SF-268 CNS) of 22.9 µM and a GI50 (U251 CNS) of 2.73 µM. The TGI (U251 CNS) was 11.9 µM, the GI50 (SNB-75 CNS) was 3.27 µM and the TGI (SNB-75 CNS) was 14.8 µM. For the same compound, the GI50 (MDA-MB-231 breast) was 2.41 µM, the TGI (MDA-MB-231 breast) was 7.49 µM and the GI50 (NCI-H460 lung) was 2.75 µM. The TGI (NCI-H460 lung) was 10.9 µM, the GI50 (786-0 renal) was 2.18 µM and the TGI (786-0 renal) was 7.94 µM. It also gave a GI50 (BT-549 breast) of 1.39 µM and a TGI (BT-549 breast) of 5.17 µM.
